Assay results published in patent US20020198172A1, “Method of treating motor neuron diseases and demyelinating diseases with citicoline” (priority 1997, published 2002).
Read-outs that look alike come from different tables or passages of the source.

Key:
[1] = tested on: patient with chronic progressive multiple sclerosis; format: in vivo
Description: (§1) Currently, they are diagnosed with chronic-progressive multiple sclerosis. They are afflicted with visual impairments, chronic fatigue, difficulty with speech articulation, tremors in the right and left hands, decreased fine motor movement in the right greater than left hands and decreased motor strength in their lower extremities. They are without weight bearing and is confined to a wheelchair. When asked what their major barriers are as far as functional abilities on a day to day basis, they place fatigue at the top of their impairment list followed by speech difficulties and decreased fine motor movement of their hands. They experienced marked spasticity of their lower extremities with the progression of their neurological condition over the course of several years and eventually resorted to a baclofen pump which was implanted in 1997. […] They receive 85 micrograms of baclofen per day.

[2] = tested on: experimental autoimmune encephalomyelitis; test: EAE prevention therapy, daily functional score (Example 2); format: in vivo, female Lewis rats; details: score 0 to 4
Experimental: Thirty-two female Lewis rats are divided into four groups of eight each and on day one administered saline, citicoline (500 or 1000 mg/kg, i.p.), or dexamethasone (0.0375 mg/kg), respectively. Dexamethasone acts as a positive control through its ability to suppress immune function. […] Therapy is continued daily. […] Numerical values are averages of the functional scores in each treatment group from Days 14-21 of the study.

[3] = tested on: patients with chronic multiple sclerosis; test: Human study in chronic multiple sclerosis, EDSS and SNRS (Example 6); format: in vivo; details: 250, 500, or 1,000 mg each patient each day orally or intravenously for six months; eight patients
Experimental: A study of two sets of four patients each with chronic multiple sclerosis is undertaken. Each patient is first examined for normal hepatic, renal, and bone marrow functioning to establish baseline values. Each of the patients in each group is then treated either with citicoline dissolved in sterile preservative-free isotonic saline 10% or oral tablet or capsule. The citicoline is administered orally or intravenously at a dosage of 250, 500, or 1,000 mg each patient each day for six months. Patients are examined on a daily basis. During the treatment period, daily blood counts and twice weekly blood chemistries are performed on each patient. The neurologic function of each of these patients is measured using the expanded Krutzke disability status scale (EDSS), and the Scripps neurologic rating scale (SNRS).

[4] = tested on: patients with bulbar palsy caused by ALS; test: Human study in bulbar palsy caused by ALS (Example 7); format: in vivo; details: 500-1000 mg citicoline daily
Experimental: Six patients with bulbar palsy caused by ALS are treated with 500-1000 mg each citicoline by injection (monosodium salt dissolved in 10 ml sterile isotonic solution of sodium chloride) or by a solid tablet or soft gel capsule orally and administered daily.

[5] = tested on: patient with chronic progressive multiple sclerosis; test: Case, chronic progressive multiple sclerosis, citicoline response (Example 13); format: in vivo, human
Description: as §1

patients = test: Observed tolerance of citicoline in patients; format: in vivo, human; details: doses about 250 mg to about 2000 mg for several weeks to several years
Description: Dosages may be varied over time depending on the severity of symptoms, individual patient tolerance, route of administration and response to treatment. Treatment may be continued indefinitely if needed and if tolerated well.

[6] = tested on: patients suffering from ALS; test: Double-blind study against placebo in ALS, survival (Example 8); format: in vivo, human
Experimental: A double-blind study against placebo is performed as follows: 77 patients suffering from ALS are treated with 500 mg each citicoline by injection (monosodium salt dissolved in 10 ml sterile isotonic solution of sodium chloride) or be a solid tablet or soft gel capsule orally and administered daily, for a period of 12 to 18 months, and 78 patients receive a placebo. The results obtained are analyzed in terms of survival in the study, it being understood that “study drop-outs” (departures from the study) include individuals who actually die, and also individuals whose clinical state necessitates a tracheotomy or transfer to assisted ventilation.

[7] = patient history since around 1986
[8] = dexamethasone 0.0375 mg/kg daily from day one
[9] = citicoline 500 mg/kg i.p. daily from day one
[10] = citicoline 1000 mg/kg i.p. daily from day one

Nc1nc(Cl)nc2c1ncn2[C@H]1C[C@H](O)[C@@H](CO)O1 [Cladribine]
effect of earlier treatment on multiple sclerosis [1, 7]: no effect

O=P1(N(CCCl)CCCl)NCCCO1 (stereo not drawn) [Cytoxan]
course of earlier treatment, tolerability [1, 7]: discontinued due to adverse events

C[C@@H]1C[C@H]2[C@@H]3CCC4=CC(=O)C=C[C@]4(C)[C@@]3(F)[C@@H](O)C[C@]2(C)[C@@]1(O)C(=O)CO [Dexamethasone]
Mean Functional Score Day 14 [2, 8]: 0.14 | Mean Functional Score Day 15 [2, 8]: 0.42 | Mean Functional Score Day 16 [2, 8]: 0.0 | Mean Functional Score Day 17 [2, 8]: 0.14 | Mean Functional Score Day 18 [2, 8]: 0.28 | Mean Functional Score Day 19 [2, 8]: 0.64 | Mean Functional Score Day 20 [2, 8]: 0.57 | Mean Functional Score Day 21 [2, 8]: 0.64

Cn1cnc([N+](=O)[O-])c1Sc1ncnc2[nH]cnc12 [Imuran]
effect of earlier treatment on multiple sclerosis ([1]; in vivo): no effect

C[C@]12C=CC(=O)C=C1CC[C@@H]1[C@@H]2C(=O)C[C@@]2(C)[C@H]1CC[C@]2(O)C(=O)CO [Prednisone]
effect of earlier treatment on multiple sclerosis [1, 7]: worked initially

NCC(CC(=O)O)c1ccc(Cl)cc1 (stereo not drawn) [baclofen]
ability to bear weight on lower extremities ([1]; baclofen pump, 85 micrograms per day): lessened their ability to bear weight on their lower extremities | spasticity in lower extremities ([1]; baclofen pump, continuous infusion into spinal fluid, 85 micrograms per day): reduced the spasticity considerably

C[N+](C)(C)CCOP(=O)(O)OP(=O)([O-])OC[C@H]1O[C@@H](n2ccc(N)nc2=O)[C@H](O)[C@@H]1O [citicoline, cytidine-5′-diphosphocholine]
toxic side effects [3]: no evidence of any significant toxic side effects | side effects of this treatment [4]: insignificant | Mean Functional Score Day 14 [2, 9]: 0.43 | Mean Functional Score Day 15 [2, 9]: 0.41 | Mean Functional Score Day 16 [2, 9]: 0.37 | Mean Functional Score Day 17 [2, 9]: 0.38 | Mean Functional Score Day 18 [2, 9]: 0.28 | Mean Functional Score Day 19 [2, 9]: 0.59 | Mean Functional Score Day 20 [2, 9]: 0.68 | Mean Functional Score Day 21 [2, 9]: 0.87 | Mean Functional Score Day 14 [2, 10]: 0.56 | Mean Functional Score Day 15 [2, 10]: 0.78 | Mean Functional Score Day 16 [2, 10]: 0.84 | Mean Functional Score Day 17 [2, 10]: 0.69 | Mean Functional Score Day 18 [2, 10]: 0.62 | Mean Functional Score Day 19 [2, 10]: 0.91 | Mean Functional Score Day 20 [2, 10]: 0.75 | Mean Functional Score Day 21 [2, 10]: 0.84 | adverse side effects ([5]; 500 mg per day every morning, first two weeks): no adverse side effects | balance and fatigue on the first two days of increased dosage ([5]; 1000 mg per day (500 mg a.m., 500 mg p.m.)): balance had been poor and that their fatigue had increased | fatigue after dosage increase ([5]; 2000 mg per day (1000 mg a.m., 1000 mg p.m.)): worsening of fatigue in the morning hours for approximately two days | patient tolerance (patients): tolerate citicoline well | patients who die (study drop-outs) ([6]; 500 mg citicoline daily for 12 to 18 months, 77 patients, placebo 50%): 20% | patients who die (study drop-outs) ([6]; subjects with early bulbar involvement or the bulbar form of ALS, 500 mg citicoline daily, placebo 65%): 30%

ACTH: drug often used to treat ALS or MS (SYSMEHFRWGKPVGKKRRPVKVYPNGAEDESAEAFPLEF; Corticotropin; UniProt P01189 138-176, looked up)
effect of earlier treatment on multiple sclerosis [1, 7]: worked initially
